Test results published in patent US5567688A, “L-nucleosides for the treatment of hepatitis B-virus” (priority 1995, dated 1996).
Where two headings read alike, the source gives them in different places.

Assays:
EBV = experiment: Inhibition of EBV production in H1 cells (bioassay, EBV DP activity in superinfected Raji cells); type: cell-based; conditions: for IC90: human gammaherpesvirus 4, Raji, 120 h
Method: (§1) H1 cells were maintained in […] growth for two days prior to the initiation of treatment. The cells were centrifuged at 600 g for 10 min. at room temperature to separate them from the medium containing pre-existing virus particles. The H1 cells were seeded in 24 well plates at a density of 1×10^5 cells per well in 2 ml of fresh medium with or without drug and incubated at 37° C. for 5 days. The medium containing virion was saved and used for evaluating the inhibitory effect of drugs on virus production and infectivity by use of a bioassay. The virion were pelleted from the cell free medium by centrifugation at 45,000 rpm for 90 min. in a SW-50 Ti rotor (Beckman). The virion were resuspended in 1 ml growth medium and then used to infect 1×10^6 Raji cells for 48 hours. Since the level of EBV DP activity in Raji cells post superinfection is proportional to the number of virions added (unpublishedresult), the EBV specific DP activity induced was able to be measured. The inhibitory drug effect Was calculated by comparing the EBV DP activity to multiple dilution controls.
Inhibitory effect of compounds on EBV: The CD50 was performed by
exposing H1 cells to different concentrations of the compounds in normal
growth medium at 37° C. for 72 hours; the cells were then counted
and compared with controls. H1 cells were treated for 5 days and the
ID90 was determined by bioassay.

HBV = experiment: Inhibition of HBV DNA in 2.2.15 cells (Southern analysis); type: cell-based, HBV (human hepatoma 2.2.15 cells); conditions: for Therapeutic Index (DC50/ID50): HBV, CD50 / anti-HBV ID50; for IC50: Hepatitis B virus, 144 h, 2.2.15 cells, 6-day treatment, 50% inhibition of the DNA, read-out: Anti-HBV Activity ID50
Method: Human hepatoma cells with HBV (2.2.15 cells) were used in the assay. These cells were grown to confluence in minimal essential medium with 10% fetal bovine serum. The media was changed at 3-day intervals. At confluence the treatment with the drugs was initiated and then continued for three days. Another addition of the same concentration of the drug was given at this point after removal of the media from the cultures and cultures maintained for an additional period of 3 days. The medium after the 6-day treatment was harvested and the viral particles precipitated by the polyethylene glycol method. The particles were subsequently digested and then processed for Southern analysis. The blots were hybridizied to an HBV-specific probe and vital DNA amounts assessed in comparison to DNA levels from cultures not treated with the drugs. The genomic DNA was digested with Hind III and subjected to Southern analysis. Levels of the episomal DNA were determined in relation to the integrated HBV DNA. The drug concentrations that cause 50% inhibition of the DNA (ID50) as compared to the controls were calculated.

[1] = Cytotoxicity in MT2 cells (CD50); type: cell-based; conditions: human
[2] = Cytotoxicity in CEM cells (CD50); type: cell-based; conditions: human
[3] = Cytotoxicity (CD50) of Table I, cell line not given; type: cell-based
[4] = Cytotoxicity in H1 cells (cell count); type: cell-based; conditions: 37° C., read-out: CD50
mitochondrial DNA = experiment: Mitochondrial DNA content in H1 cells (slot blot assay); type: cell-based, human; conditions: 1 mM, 6 days
Method: as §1
Slot Blot Assay--The amount of mitochondrial DNA was measured by the slot blot method (2). […] The amount of mitochondrial DNA in the treated and non-treated H1 cells was quantified by densitometer (LKB Ultroscan XL).

[5] = EBV, H1 cells treated for 5 days, bioassay, read-out: ID90 (the source's name)

Compound | IC90 (EBV; [5]) [µM] | Therapeutic Index (DC50/ID50) (HBV) | IC50 (HBV) [µM] | CC50 [1] [µM] | CC50 [2] [µM] | CC50 [3] [µM] | Therapeutic Index (CD50/ID90) (EBV; EBV, H1 cells) | CC50 at 72 h [4] [µM] | IC90 (EBV; read-out: ID90) [µM] | Inhibitory effect on EBV (in words) (EBV; EBV, H1 cells, up to 100 μM) | Inhibition of mitochondrial DNA content in H1 cells (mitochondrial DNA)
Nc1nc2c(ncn2COCCO)c(=O)[nH]1 [ACV] | 50 ± 8 | – | – | – | – | – | – | – | – | – | –
CCc1cn([C@@H]2O[C@H](CO)[C@@H](O)[C@@H]2F)c(=O)[nH]c1=O [D-FEAU] | 1 | > 80 | 5 | 100 | 90 | > 400 | > 400 | > 400 | – | – | –
Cc1cn([C@@H]2O[C@H](CO)[C@@H](O)[C@@H]2F)c(=O)[nH]c1=O [D-FMAU] | 0.1 | < 5 | – | 8 to 9 | 10 | < 10 | < 100 | < 10 | – | – | –
Nc1nc2c(ncn2COC(CO)CO)c(=O)[nH]1 [DHPG] | 5 ± 1 | – | – | – | – | – | – | – | – | – | –
CCc1cn([C@H]2O[C@@H](CO)[C@H](O)[C@H]2F)c(=O)[nH]c1=O [L-FEAU, N1-(2'-Deoxy-2'-fluoro-β-L-arabinofuranosyl)-5-ethyluracil] | – | > 80 | > 5 | 100 | > 100 | > 400 | 20 | > 400 | 20 | – | –
Nc1nc(=O)n([C@H]2O[C@@H](CO)[C@H](O)[C@H]2F)cc1I [L-FIAC, N1-(2'-Deoxy-2'-fluoro-β-L-arabinofuranosyl)-5-iodocytosine] | – | – | – | – | – | – | – | – | – | inactivity up to 100 μM | –
Cc1cn([C@H]2O[C@@H](CO)[C@H](O)[C@H]2F)c(=O)[nH]c1=O [L-FMAU, N1-(2'-Deoxy-2'-fluoro-β-L-arabinofuranosyl)-thymine] | 5 ± 0.8 | 9130 | – | 100 | > 100 | 913 ± 70 | 182 | 913 ± 70 | – | – | No inhibition
Nc1nc2c(ncn2CCC(CO)CO)c(=O)[nH]1 [PCV] | 20 ± 2 | – | – | – | – | – | – | – | – | – | –
O=C(O)P(=O)(O)O [PFA] | 75 ± 5 | – | – | – | – | – | – | – | – | – | –
